A short description of this data set: recombinant barcode read abundance after kanamycin selection (control-corrected) (log10(CPM+1)); higher = more efficient recombination; sequences stand for … in AGTGCAGAGAAAATCGGCCAGTTTTCTCTGCCTGCAGTCCGCATGCCGT…AGATTTATGCAGCGGACTGCCTTTCTCCCAAAGTGATAAACCGGACAGTATCATGGACCGGTTTTCCCGGTAATCCGTATTTGCAAGGTTGGTTTCACT; site = the 11-nt target. The gist of the method: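 A vector carrying a T7-inducible recombinase and the last 73 bp of the bridge RNA received, by Gibson cloning, oligos encoding a promoter, target, barcode and the first 104 bridge RNA bases under J23119. The pooled constructs entered E. coli together with a donor plasmid by electroporation. Selection used chloramphenicol/ampicillin/kanamycin with 0.1 mM IPTG, with chloramphenicol/ampicillin LB agar as the control, each in two replicates. Recombination efficiency is the averaged, control-corrected counts-per-million of barcodes at recombinant junctions, reported as log10(CPM+1).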

77 sequences from the supplement of paper PMC11208160 can be followed below.
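Further: IS621 recombinase and bridge RNA in Escherichia coli cells.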

Take “CGGGCTACTTGGGTTCTAACCTGTTGCTA (site CGGGCTACTTA)”: the “recombinant barcode read abundance (log10)” value is 1.79. For the sequence “CGGGCTACTTGGGTTCTAACCTGTTGCTA (site GGGGCAACTTA)”, the “recombinant barcode read abundance (log10)” value amounted to 0.209. The figure for “CGGGGCCCTTGGGTTCTAACCTGTTGCTT (site CGGGGCCCTAA)” is 2.6; for “CGGGGCCCTTGGGTTCTAACCTGTTGCTT (site GACTAGTCTCT)” it is 0.167. The result for “CGGGGTCCTTGGGTTCTAACCTGTTGCTA (site CGGAGTCCTTA)” reads 1.68. The result for “CGGGGTCCTTGGGTTCTAACCTGTTGCTA (site CGGCGTCCTTA)” reads 0.41. Turning to “CGGGGTCCTTGGGTTCTAACCTGTTGCTA (site CGGGGTCCTTA)”, the “recombinant barcode read abundance (log10)” value was 2.5. In the case of “CGGGGTCCTTGGGTTCTAACCTGTTGCTA (site CGGTGTCCTTA)”, the “recombinant barcode read abundance (log10)” value worked out at 0.35. Regarding “CGGTCATCTTGGGTTCTAACCTGTTGCCT (site CGATCATCTAG)”, the “recombinant barcode read abundance (log10)” value stood at 0.331. The figure for “CGGTCATCTTGGGTTCTAACCTGTTGCCT (site CGCTCATCTAG)” is 0.171. For the sequence “CGGTCATCTTGGGTTCTAACCTGTTGCCT (site CGGTCATCTAG)”, the “recombinant barcode read abundance (log10)” value was 0.537.

For the sequence “CGGTCATCTTGGGTTCTAACCTGTTGCCT (site CGTTCATCTAG)”, the “recombinant barcode read abundance (log10)” value is 0.417. The result for “CGTAAACCTTGGGTTCTAACCTGTTGCGT (site CGTAAACCTAC)” reads 0.451; that for “CGTAAACCTTGGGTTCTAACCTGTTGCGT (site CGTCAACCTAC)”, 0.0732; that for “CGTAAACCTTGGGTTCTAACCTGTTGCGT (site CGTGAACCTAC)”, 0.159. The figure for “CGTAAACCTTGGGTTCTAACCTGTTGCGT (site CGTTAACCTAC)” is 0.393; for “CGTAAGACTTGGGTTCTAACCTGTTGCCT (site CGTAAGACTAG)” it is 0.489; for “CGTAAGACTTGGGTTCTAACCTGTTGCCT (site CGTCAGACTAG)” it is 0.265. With “CGTAAGACTTGGGTTCTAACCTGTTGCCT (site CGTGAGACTAG)”, the “recombinant barcode read abundance (log10)” value came to 0.0483. On to “CGTAAGACTTGGGTTCTAACCTGTTGCCT (site CGTTAGACTAG)”, for which the “recombinant barcode read abundance (log10)” value worked out at 0.0104. With “CGTACCGCTTGGGTTCTAACCTGTTGCCT (site CCTACCGCTAA)”, the “recombinant barcode read abundance (log10)” value was 0.153. The figure for “CGTACCGCTTGGGTTCTAACCTGTTGCCT (site CGTACCGCTAG)” is 0.496; for “CGTACCTCTTGGGTTCTAACCTGTTGCTC (site CGTACCTCTAA)” it is 0.056. The result for “CGTACCTCTTGGGTTCTAACCTGTTGCTC (site CGTACCTCTCA)” reads 0.0772; that for “CGTACCTCTTGGGTTCTAACCTGTTGCTC (site CGTACCTCTGA)”, 0.171. The figure for “CGTACCTCTTGGGTTCTAACCTGTTGCTC (site CGTACCTCTTA)” is 0.0752; for “CGTACCTCTTGGGTTCTAACCTGTTGCTG (site CGTACCTCTAA)” it is 0.21. Consider “CGTACCTCTTGGGTTCTAACCTGTTGCTG (site CGTACCTCTCA)”, for which the “recombinant barcode read abundance (log10)” value stood at 0.164. The result for “CGTACCTCTTGGGTTCTAACCTGTTGCTG (site CGTACCTCTGA)” reads 0.0169.

Take “CGTACCTCTTGGGTTCTAACCTGTTGCTG (site CGTACCTCTTA)”: the “recombinant barcode read abundance (log10)” value worked out at 0.0203. In the case of “CGTAGCCCTTGGGTTCTAACCTGTTGCGG (site ACATATACTAA)”, the “recombinant barcode read abundance (log10)” value was determined as 0.157.

For “CGTAGCCCTTGGGTTCTAACCTGTTGCGG (site CGTAGCCCTCC)”, the “recombinant barcode read abundance (log10)” value was 0.691. The result for “CGTAGGGCTTGGGTTCTAACCTGTTGCCG (site AGTAGGGCTCT)” reads 0.103; that for “CGTAGGGCTTGGGTTCTAACCTGTTGCCG (site CGTAGGGCTCG)”, 0.102; that for “CGTATAGCTTGGGTTCTAACCTGTTGCCT (site CGTATAGCTAG)”, 0.285. The result for “CGTATAGCTTGGGTTCTAACCTGTTGCCT (site CGTGAAGCTAG)” reads 0.0599; that for “CGTATATCTTGGGTTCTAACCTGTTGCCT (site CGTATATCTAG)”, 0. The result for “CGTATATCTTGGGTTCTAACCTGTTGCCT (site CGTGTAACTAG)” reads 0.0247.

As for “CGTATCCCTTGGGTTCTAACCTGTTGCTG (site CGTATCCCTCA)”, the “recombinant barcode read abundance (log10)” value was found to be 0.692. As for “CGTATCCCTTGGGTTCTAACCTGTTGCTG (site CGTCTCCCTAA)”, the “recombinant barcode read abundance (log10)” value amounted to 0.155.

In the case of “CGTATCTCTTGGGTTCTAACCTGTTGCCT (site CCAATCTCTAG)”, the “recombinant barcode read abundance (log10)” value turned out to be 0.063. The figure for “CGTATCTCTTGGGTTCTAACCTGTTGCCT (site CGTATCTCTAG)” is 0.406; for “CGTATGACTTGGGTTCTAACCTGTTGCCT (site AGTATGACTAG)” it is 0.28; for “CGTATGACTTGGGTTCTAACCTGTTGCCT (site CGTATGACTAG)” it is 0.0395. The figure for “CGTATGACTTGGGTTCTAACCTGTTGCCT (site GGTATGACTAG)” is 0.103; for “CGTATGACTTGGGTTCTAACCTGTTGCCT (site TGTATGACTAG)” it is 0.05. Regarding “CGTCAGCCTTGGGTTCTAACCTGTTGCCT (site CGTCAACCTAG)”, the “recombinant barcode read abundance (log10)” value was found to be 0.0431. The figure for “CGTCAGCCTTGGGTTCTAACCTGTTGCCT (site CGTCACCCTAG)” is 0.0486; for “CGTCAGCCTTGGGTTCTAACCTGTTGCCT (site CGTCAGCCTAG)” it is 0.22; for “CGTCAGCCTTGGGTTCTAACCTGTTGCCT (site CGTCATCCTAG)” it is 0.0681. “CGTCGACCTTGGGTTCTAACCTGTTGCAT (site ACCTCTTCTTA)”: the “recombinant barcode read abundance (log10)” value was determined as 0.0126. The figure for “CGTCGACCTTGGGTTCTAACCTGTTGCAT (site CGTCGACCTAT)” is 0.128; for “CGTCGGACTTGGGTTCTAACCTGTTGCAG (site CGTCGGACTCT)” it is 0.3.

Consider “CGTCGGACTTGGGTTCTAACCTGTTGCAG (site TAGTTTGCTTC)”, for which the “recombinant barcode read abundance (log10)” value was determined as 0.0182. The result for “CGTCTAGCTTGGGTTCTAACCTGTTGCAT (site CGTCTAGCTAT)” reads 0.255; that for “CGTCTAGCTTGGGTTCTAACCTGTTGCAT (site TCGGCCTCTTA)”, 0.0729; that for “CGTGACCCTTGGGTTCTAACCTGTTGCTT (site CGGGACCCTAG)”, 0.0226. The result for “CGTGACCCTTGGGTTCTAACCTGTTGCTT (site CGTGACCCTAA)” reads 0.691; that for “CGTGAGACTTGGGTTCTAACCTGTTGCCT (site CGTAAGACTAG)”, 0.341; that for “CGTGAGACTTGGGTTCTAACCTGTTGCCT (site CGTCAGACTAG)”, 0.203. The result for “CGTGAGACTTGGGTTCTAACCTGTTGCCT (site CGTGAGACTAG)” reads 1.48; that for “CGTGAGACTTGGGTTCTAACCTGTTGCCT (site CGTTAGACTAG)”, 0.0487; that for “CGTGGAGCTTGGGTTCTAACCTGTTGCCA (site CGTCTAGCTTG)”, 0.136. Turning to “CGTGGAGCTTGGGTTCTAACCTGTTGCCA (site CGTGGAGCTTG)”, the “recombinant barcode read abundance (log10)” value stood at 0.836. Take “CGTGGTCCTTGGGTTCTAACCTGTTGCAT (site CGTGGTCCTAA)”: the “recombinant barcode read abundance (log10)” value was 0.414. With “CGTGGTCCTTGGGTTCTAACCTGTTGCAT (site CGTGGTCCTAC)”, the “recombinant barcode read abundance (log10)” value is 0.809. As for “CGTGGTCCTTGGGTTCTAACCTGTTGCAT (site CGTGGTCCTAG)”, the “recombinant barcode read abundance (log10)” value turned out to be 0.398. The figure for “CGTGGTCCTTGGGTTCTAACCTGTTGCAT (site CGTGGTCCTAT)” is 1.25; for “CGTGTAACTTGGGTTCTAACCTGTTGCTT (site CGAGCAACTAA)” it is 0.0308. The result for “CGTGTAACTTGGGTTCTAACCTGTTGCTT (site CGTGTAACTAA)” reads 0.212. The figure for “CGTTATTCTTGGGTTCTAACCTGTTGCCT (site CGGAATTCTAG)” is 0.115.

As to “CGTTATTCTTGGGTTCTAACCTGTTGCCT (site CGTTATTCTAG)”, the “recombinant barcode read abundance (log10)” value is 0.0118. The figure for “CGTTCACCTTGGGTTCTAACCTGTTGCAT (site ACAAATACTCC)” is 0.0056; for “CGTTCACCTTGGGTTCTAACCTGTTGCAT (site CGTTCACCTAT)” it is 0.499; for “CGTTCCTCTTGGGTTCTAACCTGTTGCCT (site CATTCCTCTAG)” it is 0.0798. The result for “CGTTCCTCTTGGGTTCTAACCTGTTGCCT (site CCTTCCTCTAG)” reads 0.016; that for “CGTTCCTCTTGGGTTCTAACCTGTTGCCT (site CGTTCCTCTAG)”, 0.519.
